Assay results: paper PMC11702208 (RSC Advances, 2025)
Several values for one entry are separate records, joined by “and”; a condition that tells them apart may be missing. Identical values can stand only once. Like-named read-outs stand apart in the source and are kept apart here.

Tests used:
MDA-MB-231/ATCC = test: NCI cytotoxicity screen; assay type: cell-based, human
SNB-75 = test: NCI cytotoxicity screen; assay type: cell-based, human; conditions: 10.0 μM one dose
OVCAR-8 = test: NCI cytotoxicity screen; assay type: cell-based, human
OVCAR-3 = test: NCI cytotoxicity screen; assay type: cell-based, human
M14 = test: NCI cytotoxicity screen; assay type: cell-based, human
HS 578T = test: NCI cytotoxicity screen; assay type: cell-based, human
SN12C = test: NCI cytotoxicity screen; assay type: cell-based, human; conditions: 10.0 μM one dose; SN-12C
DU-145 = test: NCI cytotoxicity screen; assay type: cell-based, human
SF-539 = test: NCI cytotoxicity screen; assay type: cell-based, human
MDA-MB-468 = test: NCI cytotoxicity screen; assay type: cell-based, human
SF-295 = test: NCI cytotoxicity screen; assay type: cell-based, human
NCI-H522 = test: NCI cytotoxicity screen; assay type: cell-based, human; conditions: 10.0 μM one dose
SNB-19 = test: NCI cytotoxicity screen; assay type: cell-based, human
786-0 = test: NCI cytotoxicity screen; assay type: cell-based, human
SK-MEL-2 = test: NCI cytotoxicity screen; assay type: cell-based, human
BT-549 = test: NCI cytotoxicity screen; assay type: cell-based, human
NCI-H23 = test: NCI cytotoxicity screen; assay type: cell-based, human
KM12 = test: NCI cytotoxicity screen; assay type: cell-based, human
SR = test: NCI cytotoxicity screen; assay type: cell-based, human
UACC-62 = test: NCI cytotoxicity screen; assay type: cell-based, human
NCI-H322M = test: NCI cytotoxicity screen; assay type: cell-based, human
A549/ATCC = test: NCI cytotoxicity screen; assay type: cell-based, human
UACC-257 = test: NCI cytotoxicity screen; assay type: cell-based, human; conditions: 10.0 μM one dose
OVCAR-4 = test: NCI cytotoxicity screen; assay type: cell-based, human
SK-MEL-5 = test: NCI cytotoxicity screen; assay type: cell-based, human
COLO 205 = test: NCI cytotoxicity screen; assay type: cell-based, human; conditions: 10.0 μM one dose; COLO-205
PC-3 = test: NCI cytotoxicity screen; assay type: cell-based, human; conditions: 10.0 μM one dose
MALME-3M = test: NCI cytotoxicity screen; assay type: cell-based, human
ACHN = test: NCI cytotoxicity screen; assay type: cell-based, human
CCRF-CEM = test: NCI cytotoxicity screen; assay type: cell-based, human
59 cancer cell lines = test: NCI cytotoxicity screen, full panel; assay type: cell-based, human; conditions: for TGI MG_MID / GI50: full panel mean-graph midpoint; for GI50: read-out: GI50 MG_MID
HOP-62 = test: NCI cytotoxicity screen; assay type: cell-based, human
RXF 393 = test: NCI cytotoxicity screen; assay type: cell-based, human
MDA-MB-435 = test: NCI cytotoxicity screen; assay type: cell-based, human
HCT-15 = test: NCI cytotoxicity screen; assay type: cell-based, human
UO-31 = test: NCI cytotoxicity screen; assay type: cell-based, human
TK-10 = test: NCI cytotoxicity screen; assay type: cell-based, human
HCT-116 = test: NCI cytotoxicity screen; assay type: cell-based, human
CAKI-1 = test: NCI cytotoxicity screen; assay type: cell-based, human
T-47D = test: NCI cytotoxicity screen; assay type: cell-based, human; conditions: 10.0 μM one dose; T-47D
[1] = system: NSC lung cancer subpanel tumor cell lines; test: NCI cytotoxicity screen, subpanel; assay type: cell-based, human; conditions: subpanel value, NSC lung cancer
NCI/ADR-RES = test: NCI cytotoxicity screen; assay type: cell-based, human; conditions: Homo sapiens, five-dose
[2] = system: Melanoma subpanel tumor cell lines; test: NCI cytotoxicity screen, subpanel; assay type: cell-based, human; conditions: subpanel value, Melanoma
[3] = system: Ovarian cancer subpanel tumor cell lines; test: NCI cytotoxicity screen, subpanel; assay type: cell-based, human; conditions: subpanel value, Ovarian cancer
K-562 = test: cells; conditions: Homo sapiens, K562

**Q.** With `NS(=O)(=O)c1ccc(Cn2c(SCC(=O)NN=Cc3ccccc3O)nc3ccccc3c2=O)cc1` [Compound 6, 4-((2-((2-(2-(2-Hydroxybenzylidene)hydrazineyl)-2-oxoethyl)thio)-4-oxoquinazolin-3(4H)-yl)methyl)benzenesulfonamide] as the compound, how does the GI % (MDA-MB-231/ATCC; 10.0 μM one dose, MDA-MB-231/ATCC) read?
**A.** 70%

**Q.** What about the GI % (SNB-75) of the same compound?
**A.** 15%

**Q.** What about the GI % (OVCAR-8; 10.0 μM one dose) of the same compound?
**A.** 56%

**Q.** What about the GI % (OVCAR-3; 10.0 μM one dose, IGROV-3) of the same compound?
**A.** 87%

**Q.** What about the GI % (M14; 10.0 μM one dose) of the same compound?
**A.** 58%

**Q.** And the GI % (HS 578T; 10.0 μM one dose, HS-578T)?
**A.** 29%

**Q.** What about the GI % (SN12C) of the same compound?
**A.** 44%

**Q.** What about the GI % (DU-145; 10.0 μM one dose) of the same compound?
**A.** 28%

**Q.** What about the GI % (SF-539; 10.0 μM one dose) of the same compound?
**A.** 46%

**Q.** And the GI % (MDA-MB-468; 10.0 μM one dose)?
**A.** 48%

**Q.** What about the GI % (SF-295; 10.0 μM one dose) of the same compound?
**A.** 35%

**Q.** And the GI % (NCI-H522)?
**A.** 101%

**Q.** And the GI % (SNB-19; 10.0 μM one dose)?
**A.** 45%

**Q.** What about the GI % (786-0; 10.0 μM one dose) of the same compound?
**A.** 29%

**Q.** And the GI % (SK-MEL-2; 10.0 μM one dose)?
**A.** 64%

**Q.** What about the GI % (BT-549; 10.0 μM one dose) of the same compound?
**A.** 44%

**Q.** And the GI % (NCI-H23; 10.0 μM one dose)?
**A.** 37%

**Q.** And the GI % (KM12; 10.0 μM one dose, KM-12)?
**A.** 61%

**Q.** What about the GI % (SR; 10.0 μM one dose) of the same compound?
**A.** 76%

**Q.** And the GI % (UACC-62; 10.0 μM one dose)?
**A.** 62%

**Q.** What about the GI % (NCI-H322M; 10.0 μM one dose) of the same compound?
**A.** 53%

**Q.** And the GI % (A549/ATCC; 10.0 μM one dose, A549/ATCC)?
**A.** 31%

**Q.** What about the GI % (UACC-257) of the same compound?
**A.** 30%

**Q.** And the GI % (OVCAR-4; 10.0 μM one dose, IGROV-4)?
**A.** 60%

**Q.** And the GI % (SK-MEL-5; 10.0 μM one dose)?
**A.** 42%

**Q.** And the GI % (COLO 205)?
**A.** 71%

**Q.** And the GI % (PC-3)?
**A.** 33%

**Q.** What about the GI % (MALME-3M; 10.0 μM one dose, MALME-3M) of the same compound?
**A.** 41%

**Q.** What about the GI % (ACHN; 10.0 μM one dose) of the same compound?
**A.** 28%

**Q.** What about the GI % (CCRF-CEM; 10.0 μM one dose) of the same compound?
**A.** 77%

**Q.** What about the “MG% (mean growth percent)” value (59 cancer cell lines; 10.0 μM one dose, 59 cell lines) of the same compound?
**A.** 55.2% and 55.22%

**Q.** What about the GI % (HOP-62; 10.0 μM one dose) of the same compound?
**A.** 65%

**Q.** What about the GI % (RXF 393; 10.0 μM one dose) of the same compound?
**A.** 28%

**Q.** And the GI % (MDA-MB-435; 10.0 μM one dose)?
**A.** 29%

**Q.** And the GI % (HCT-15; 10.0 μM one dose)?
**A.** 25%

**Q.** And the GI % (UO-31; 10.0 μM one dose)?
**A.** 39%

**Q.** And the GI % (TK-10; 10.0 μM one dose)?
**A.** 47%

**Q.** What about the GI % (HCT-116; 10.0 μM one dose) of the same compound?
**A.** 58%

**Q.** And the GI % (CAKI-1; 10.0 μM one dose)?
**A.** 46%

**Q.** What about the GI % (T-47D) of the same compound?
**A.** 67%

**Q.** `COc1cc2ncnc(Nc3ccc(F)c(Cl)c3)c2cc1OCCCN1CCOCC1` [Gefitinib, reference compound] was tested. Which GI50 (MDA-MB-231/ATCC; Homo sapiens, MDA-MB-231) did it give?
**A.** 12.6 µM

**Q.** What about the GI50 ([1]; Homo sapiens) of the same compound?
**A.** 2.1 µM

**Q.** What about the GI50 [1] of the same compound?
**A.** 2.05 µM

**Q.** What about the TGI [1] of the same compound?
**A.** 13.86 µM

**Q.** What about the GI50 (OVCAR-8; Homo sapiens) of the same compound?
**A.** 10 µM

**Q.** And the GI50 (OVCAR-3; Homo sapiens, OVCAR-3)?
**A.** 5.01 µM

**Q.** What about the GI50 (NCI/ADR-RES) of the same compound?
**A.** 12.6 µM

**Q.** What about the GI50 (M14; Homo sapiens) of the same compound?
**A.** 5.01 µM

**Q.** And the GI50 (HS 578T; Homo sapiens, Hs-578T)?
**A.** 10 µM

**Q.** And the GI50 (DU-145; Homo sapiens)?
**A.** 2.51 µM

**Q.** What about the GI50 (SF-539; Homo sapiens) of the same compound?
**A.** 10 µM

**Q.** And the GI50 (MDA-MB-468; Homo sapiens)?
**A.** 0.01 µM

**Q.** And the GI50 (SF-295; Homo sapiens)?
**A.** 1.99 µM

**Q.** What about the GI50 (SNB-19; Homo sapiens) of the same compound?
**A.** 12.6 µM

**Q.** And the GI50 ([2]; Homo sapiens)?
**A.** 3.7 µM

**Q.** And the GI50 [2]?
**A.** 3.68 µM

**Q.** What about the TGI [2] of the same compound?
**A.** 12.49 µM

**Q.** And the GI50 (786-0; Homo sapiens)?
**A.** 7.94 µM

**Q.** And the GI50 (SK-MEL-2; Homo sapiens)?
**A.** 12.6 µM

**Q.** And the GI50 (BT-549; Homo sapiens)?
**A.** 7.94 µM

**Q.** What about the GI50 (NCI-H23; Homo sapiens) of the same compound?
**A.** 15.8 µM

**Q.** What about the GI50 (KM12; Homo sapiens, KM12) of the same compound?
**A.** 7.94 µM

**Q.** What about the GI50 ([3]; Homo sapiens) of the same compound?
**A.** 3.3 µM

**Q.** And the GI50 [3]?
**A.** 3.05 µM

**Q.** And the TGI [3]?
**A.** 33.29 µM

**Q.** What about the GI50 (SR; Homo sapiens) of the same compound?
**A.** 3.16 µM

**Q.** And the GI50 (UACC-62; Homo sapiens)?
**A.** 5.01 µM

**Q.** What about the GI50 (NCI-H322M; Homo sapiens) of the same compound?
**A.** 0.08 µM

**Q.** And the GI50 (A549/ATCC; Homo sapiens, A549)?
**A.** 7.94 µM

**Q.** What about the GI50 (OVCAR-4; Homo sapiens, OVCAR-4) of the same compound?
**A.** 7.94 µM

**Q.** And the GI50 (SK-MEL-5; Homo sapiens)?
**A.** 3.98 µM

**Q.** What about the GI50 (MALME-3M; Homo sapiens, Malme-3M) of the same compound?
**A.** 3.16 µM

**Q.** What about the GI50 (ACHN; Homo sapiens) of the same compound?
**A.** 0.2 µM

**Q.** And the GI50 (CCRF-CEM; Homo sapiens)?
**A.** 5.01 µM

**Q.** And the GI50 (K-562)?
**A.** 2.51 µM

**Q.** What about the CC50 (59 cancer cell lines; Homo sapiens, read-out: LC50 MG_MID, full panel mean-graph midpoint) of the same compound?
**A.** 95.6 µM

**Q.** And the “TGI MG_MID” value (59 cancer cell lines)?
**A.** 14.3 µM

**Q.** And the “TGI MG_MID” value (59 cancer cell lines; listed as gefitinib)?
**A.** 66.3 µM

**Q.** What about the GI50 (59 cancer cell lines) of the same compound?
**A.** 2.1 µM

**Q.** And the GI50 (59 cancer cell lines; listed as gefitinib)?
**A.** 7.7 µM

**Q.** What about the GI50 (HOP-62; Homo sapiens) of the same compound?
**A.** 10 µM

**Q.** And the GI50 (RXF 393; Homo sapiens)?
**A.** 5.01 µM

**Q.** What about the GI50 (MDA-MB-435; Homo sapiens) of the same compound?
**A.** 3.16 µM

**Q.** And the GI50 (HCT-15; Homo sapiens)?
**A.** 5.01 µM

**Q.** What about the GI50 (UO-31; Homo sapiens) of the same compound?
**A.** 1.25 µM

**Q.** What about the GI50 (TK-10; Homo sapiens) of the same compound?
**A.** 0.1 µM

**Q.** And the GI50 (HCT-116; Homo sapiens)?
**A.** 7.94 µM

**Q.** And the GI50 (CAKI-1; Homo sapiens)?
**A.** 0.16 µM
